By IC50 is commonly meant the concentration that inhibits the measured activity by half.

In patent publication US20250163104A1, “MACROCYCLIC IMMUNOMODULATORS” (priority 2021, published 2025) one finds IC50 data, which are given here for 15 molecules.

Where a SMILES comes first, the peptide text is derived from it. Bridges are numbered along the chain shown (N, C = ends). [ ]: non-standard residue; d: D form. The star is where a group is joined. ξ: configuration not given here. Phe(4-COOH) = N[C@@H](Cc1ccc(C(=O)O)cc1)C(=O)O; Bip = N[C@@H](Cc1ccc(-c2ccccc2)cc1)C(=O)O; Phe(3-Me) = Cc1cccc(C[C@H](N)C(=O)O)c1; hArg = N=C(N)NCCCC[C@H](N)C(=O)O; 4Pal = N[C@@H](Cc1ccncc1)C(=O)O; Aad = N[C@@H](CCCC(=O)O)C(=O)O; Cha = N[C@@H](CC1CCCCC1)C(=O)O; Thr(3ξ) = CC(O)[C@H](N)C(=O)O; Ahp(2) = CCCCC[C@H](N)C(=O)O; NMeNle = CCCC[C@H](NC)C(=O)O; Carboxymethyl = O=C(O)C*; Orn = NCCC[C@H](N)C(=O)O; Dab = NCC[C@H](N)C(=O)O; Dap = NC[C@H](N)C(=O)O

The assay deals with T1, human PD-1 / PD-L1-Ig binding on Jurkat cell line over-expressing human PD-1 (Jurkat-PD-1) (Homo sapiens, UniProt Q15116).
T1 construct: expressed in transfected cells; host or cells: Jurkat
T1 sequence (Q15116 25-288): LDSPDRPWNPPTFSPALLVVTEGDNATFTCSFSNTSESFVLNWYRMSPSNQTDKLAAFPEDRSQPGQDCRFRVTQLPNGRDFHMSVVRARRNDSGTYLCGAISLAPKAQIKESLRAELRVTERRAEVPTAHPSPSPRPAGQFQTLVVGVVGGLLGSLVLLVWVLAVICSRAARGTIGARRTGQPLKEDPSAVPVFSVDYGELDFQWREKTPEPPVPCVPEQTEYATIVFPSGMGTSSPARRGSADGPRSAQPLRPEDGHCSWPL
Nature of the assay: Jurkat-PD-1 Cell Binding High-Content Screening Assay (CBA). The settings on record: Jurkat-PD-1 cells, PE-labeled PD-L1-Ig 20 nM final; read-out: Jurkat HPD1_PDL1 IC50. It is filed as cell-based. The gist of the method: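 Read-out: high-content imaging of PE-tagged PD-L1-Ig bound to Jurkat cells overexpressing human PD-1, after fixation with 4% paraformaldehyde and Hoechst 33342 nuclear staining. Ligand was used at 20 nM final for 1 hour, after a 2 h compound exposure at 37° C in serum-containing DMEM.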
`Cc1cccc(C[C@@H]2NC(=O)[C@H](CC(=O)O)NC(=O)[C@H](Cc3ccc(OCC(=O)O)cc3)NC(=O)[C@H](CCCC(=O)O)NC(=O)CSC[C@@H](C(=O)N[C@@H](C)C(N)=O)NC(=O)[C@H](CO)NC(=O)[C@H](C(C)C)NC(=O)[C@H](CC3CCCCC3)NC(=O)[C@H](CCN)NC(=O)[C@@H](CC(C)C)NC(=O)[C@H](CCCN)NC(=O)[C@H](C(C)C)NC(=O)[C@H](Cc3ccc(-c4ccccc4)cc3)NC(=O)[C@H](C(C)C)NC2=O)c1` [Compound 2537] ({CH2CO}-[Aad]Y(Carboxymethyl)D[Phe(3-Me)]V[Bip]V[Orn][dL][Dab][Cha]VSCA-NH2; thioether N-14): the IC50 came out at 18.3 nM. Regarding `CCC(C)[C@@H]1NC(=O)[C@H](Cc2ccc(-c3ccccc3)cc2)NC(=O)[C@H](C(C)C)NC(=O)[C@H](Cc2cccc(C)c2)NC(=O)[C@H](CC(=O)O)NC(=O)[C@H](Cc2ccc(C(=O)O)cc2)NC(=O)[C@H](CCCNC(=N)N)NC(=O)CSC[C@@H](C(=O)N[C@@H](C)C(N)=O)NC(=O)[C@H](C(C)O)NC(=O)[C@H](C(C)C)NC(=O)[C@H](CC2CCCCC2)NC(=O)[C@H](CCN)NC(=O)[C@@H](CC(C)C)NC(=O)[C@H](CCCN)NC1=O` (stereo partly drawn) [Compound 2538], the half-inhibitory concentration (IC50) was 9.7 nM. As for `CC(C)C[C@H]1NC(=O)[C@H](CCCN)NC(=O)[C@H](CN)NC(=O)[C@H](Cc2ccc(-c3ccccc3)cc2)NC(=O)[C@H](C(C)C)NC(=O)[C@H](Cc2c[nH]c3ccccc23)NC(=O)[C@H](CC(=O)O)NC(=O)[C@H](Cc2ccc(OCC(=O)O)cc2)NC(=O)[C@H](CC#N)NC(=O)CSC[C@@H](C(=O)N[C@@H](C)C(N)=O)NC(=O)[C@H](C(C)O)NC(=O)[C@H](C(C)C)NC(=O)[C@H](CC2CCCCC2)NC(=O)[C@H](CC(N)=O)NC1=O` (stereo partly drawn) [Compound 2539], the concentration for half-maximal inhibition (IC50) is 103 nM. Take `CC(C)C[C@H]1NC(=O)[C@H](CCCN)NC(=O)[C@H](CN)NC(=O)[C@H](Cc2ccc(-c3ccccc3)cc2)NC(=O)[C@H](C(C)C)NC(=O)[C@H](Cc2c[nH]c3ccccc23)NC(=O)[C@H](CC(=O)O)NC(=O)[C@H](Cc2ccc(C(=O)O)cc2)NC(=O)[C@H](Cc2ccc(OCC(=O)O)cc2)NC(=O)CSC[C@@H](C(=O)N[C@@H](C)C(N)=O)NC(=O)[C@H](CO)NC(=O)[C@H](C(C)C)NC(=O)[C@H](CC2CCCCC2)NC(=O)[C@H](CCN)NC1=O` [Compound 2540] ({CH2CO}-Y(Carboxymethyl)[Phe(4-COOH)]DWV[Bip][Dap][Orn][dL][Dab][Cha]VSCA-NH2; thioether N-14): the IC50 is 16.1 nM. In the case of `CCCCC[C@@H]1NC(=O)[C@H](Cc2ccc(-c3ccccc3)cc2)NC(=O)[C@H](C(C)C)NC(=O)[C@H](Cc2c[nH]c3ccccc23)NC(=O)[C@H](CC(=O)O)NC(=O)[C@H](Cc2ccc(C(=O)O)cc2)NC(=O)[C@H](Cc2ccncc2)NC(=O)CSC[C@@H](C(=O)N[C@@H](CC(N)=O)C(N)=O)NC(=O)[C@H](CO)NC(=O)[C@H](C(C)C)NC(=O)[C@H](CC2CCCCC2)NC(=O)[C@H](CCN)NC(=O)[C@@H](C)NC(=O)[C@H](CCCN)NC1=O` [Compound 2541] ({CH2CO}-[4Pal][Phe(4-COOH)]DWV[Bip][Ahp(2)][Orn][dA][Dab][Cha]VSCN-NH2; thioether N-14), the IC50 turned out to be 58.4 nM. Turning to `CC(C)C[C@H]1NC(=O)[C@H](CCCN)NC(=O)[C@H](CCCCN)NC(=O)[C@H](Cc2ccc(-c3ccccc3)cc2)NC(=O)[C@H](C(C)C)NC(=O)[C@H](Cc2c[nH]c3ccccc23)NC(=O)[C@H](CC(=O)O)NC(=O)[C@H](Cc2ccncc2)NC(=O)[C@H](CN)NC(=O)CSC[C@@H](C(=O)N[C@@H](CC(N)=O)C(N)=O)NC(=O)[C@H](C(C)O)NC(=O)[C@H](C(C)C)NC(=O)[C@H](CC2CCCCC2)NC(=O)[C@H](CCN)NC1=O` (stereo partly drawn) [Compound 2542] ({CH2CO}-[Dap][4Pal]DWV[Bip]K[Orn][dL][Dab][Cha]V[Thr(3ξ)]CN-NH2; thioether N-14), the IC50 stood at 20.5 nM.

As for `CC(C)[C@@H]1NC(=O)[C@H](Cc2c[nH]c3ccccc23)NC(=O)[C@H](CC(=O)O)NC(=O)[C@H](Cc2ccncc2)NC(=O)[C@H](CN)NC(=O)CSC[C@@H](C(=O)NCC(N)=O)NC(=O)[C@H](C(C)O)NC(=O)[C@H](C(C)C)NC(=O)[C@H](CC2CCCCC2)NC(=O)[C@H](CCN)NC(=O)[C@@H](C)NC(=O)[C@H](CCCN)NC(=O)[C@H](CCN)NC(=O)[C@H](Cc2ccc(-c3ccccc3)cc2)NC1=O` (stereo partly drawn) [Compound 2543] ({CH2CO}-[Dap][4Pal]DWV[Bip][Dab][Orn][dA][Dab][Cha]V[Thr(3ξ)]CG-NH2; thioether N-14), the concentration for half-maximal inhibition (IC50) amounted to 236 nM. Regarding `CC(C)[C@@H]1NC(=O)[C@H](Cc2c[nH]c3ccccc23)NC(=O)[C@H](CC(=O)O)NC(=O)[C@H](Cc2ccc(C(=O)O)cc2)NC(=O)[C@H](Cc2ccncc2)NC(=O)CSC[C@@H](C(=O)NCC(N)=O)NC(=O)[C@H](CO)NC(=O)[C@H](C(C)C)NC(=O)[C@H](CC2CCCCC2)NC(=O)[C@H](CCN)NC(=O)[C@@H](C)NC(=O)[C@H](CCCN)NC(=O)[C@H](CCN)NC(=O)[C@H](Cc2ccc(-c3ccccc3)cc2)NC1=O` [Compound 2544] ({CH2CO}-[4Pal][Phe(4-COOH)]DWV[Bip][Dab][Orn][dA][Dab][Cha]VSCG-NH2; thioether N-14), the IC50 came out at 80.6 nM.

Consider `CC(C)C[C@H]1NC(=O)[C@H](CCCN)NC(=O)[C@H](C(C)C)NC(=O)[C@H](Cc2ccc(-c3ccccc3)cc2)NC(=O)[C@H](C(C)C)NC(=O)[C@H](Cc2c[nH]c3ccccc23)NC(=O)[C@H](CC(=O)O)NC(=O)[C@H](Cc2ccc(OCC(=O)O)cc2)NC(=O)[C@H](CCCCNC(=N)N)NC(=O)CSC[C@@H](C(=O)N[C@@H](CC(N)=O)C(N)=O)NC(=O)[C@H](C(C)O)NC(=O)[C@H](C(C)C)NC(=O)[C@H](CC2CCCCC2)NC(=O)[C@H](CCN)NC1=O` (stereo partly drawn) [Compound 2546] ({CH2CO}-[hArg]Y(Carboxymethyl)DWV[Bip]V[Orn][dL][Dab][Cha]V[Thr(3ξ)]CN-NH2; thioether N-14), for which the IC50 was 7.5 nM.

With `CC(C)C[C@H]1NC(=O)[C@H](CCCN)NC(=O)[C@H](C(C)C)NC(=O)[C@H](Cc2ccc(-c3ccccc3)cc2)NC(=O)[C@H](C(C)C)NC(=O)[C@H](Cc2c[nH]c3ccccc23)NC(=O)[C@H](CC(=O)O)NC(=O)[C@H](Cc2ccc(OCC(=O)O)cc2)NC(=O)[C@H](Cc2cnc[nH]2)NC(=O)CSC[C@@H](C(=O)N[C@@H](CC(N)=O)C(N)=O)NC(=O)[C@H](C(C)O)NC(=O)[C@H](C(C)C)NC(=O)[C@H](CC2CCCCC2)NC(=O)[C@H](CCN)NC1=O` (stereo partly drawn) [Compound 2548] ({CH2CO}-HY(Carboxymethyl)DWV[Bip]V[Orn][dL][Dab][Cha]V[Thr(3ξ)]CN-NH2; thioether N-14), the concentration for half-maximal inhibition (IC50) was determined as 5.9 nM. In the case of `CC(C)C[C@H]1NC(=O)[C@H](CCCN)NC(=O)[C@H](C(C)C)NC(=O)[C@H](Cc2ccc(-c3ccccc3)cc2)NC(=O)[C@H](C(C)C)NC(=O)[C@H](Cc2c[nH]c3ccccc23)NC(=O)[C@H](CC(=O)O)NC(=O)[C@H](Cc2ccc(O)cc2)NC(=O)[C@H](C(C)O)NC(=O)CSC[C@@H](C(=O)N[C@@H](CC(N)=O)C(N)=O)NC(=O)[C@H](C(C)O)NC(=O)[C@H](C(C)C)NC(=O)[C@H](CC2CCCCC2)NC(=O)[C@H](CCN)NC1=O` (stereo partly drawn) [Compound 2549] ({CH2CO}-[Thr(3ξ)]YDWV[Bip]V[Orn][dL][Dab][Cha]V[Thr(3ξ)]CN-NH2; thioether N-14), the IC50 was 12.5 nM. Under `CC(C)C[C@H]1NC(=O)[C@H](CCCN)NC(=O)[C@H](C(C)C)NC(=O)[C@H](Cc2ccc(-c3ccccc3)cc2)NC(=O)[C@H](C(C)C)NC(=O)[C@H](Cc2c[nH]c3ccccc23)NC(=O)[C@H](CC(=O)O)NC(=O)[C@H](Cc2ccc(OCC(=O)O)cc2)NC(=O)[C@H](C(C)O)NC(=O)CSC[C@@H](C(=O)N[C@@H](CC(N)=O)C(N)=O)NC(=O)[C@H](CO)NC(=O)[C@H](C(C)C)NC(=O)[C@H](CC2CCCCC2)NC(=O)[C@H](CCN)NC1=O` (stereo partly drawn) [Compound 2550] ({CH2CO}-[Thr(3ξ)]Y(Carboxymethyl)DWV[Bip]V[Orn][dL][Dab][Cha]VSCN-NH2; thioether N-14) stands 4.9 nM; under `CCCC[C@H]1C(=O)N[C@@H](Cc2ccc(C(=O)O)cc2)C(=O)N[C@@H](CC(=O)O)C(=O)N[C@@H](Cc2c[nH]c3ccccc23)C(=O)N[C@@H](C(C)C)C(=O)N[C@@H](Cc2ccc(-c3ccccc3)cc2)C(=O)N[C@@H](C(C)C)C(=O)N[C@@H](CCCN)C(=O)N[C@H](CC(C)C)C(=O)N[C@@H](CCN)C(=O)N[C@@H](CC2CCCCC2)C(=O)N[C@@H](C(C)C)C(=O)N[C@@H](C(C)O)C(=O)N[C@H](C(=O)N[C@@H](CC(N)=O)C(N)=O)CSCC(=O)N1C` (stereo partly drawn) [Compound 2551] ({CH2CO}-[NMeNle][Phe(4-COOH)]DWV[Bip]V[Orn][dL][Dab][Cha]V[Thr(3ξ)]CN-NH2; thioether N-14), 92.5 nM; under `CC(C)C[C@H]1NC(=O)[C@H](CCCN)NC(=O)[C@H](C(C)O)NC(=O)[C@H](Cc2ccc(-c3ccccc3)cc2)NC(=O)[C@H](C(C)C)NC(=O)[C@H](Cc2c[nH]c3ccccc23)NC(=O)[C@H](CC(=O)O)NC(=O)[C@H](Cc2ccc(OCC(=O)O)cc2)NC(=O)[C@H](CN)NC(=O)CSC[C@@H](C(=O)N[C@@H](CC(N)=O)C(N)=O)NC(=O)[C@H](C(C)O)NC(=O)[C@H](C(C)C)NC(=O)[C@H](CC2CCCCC2)NC(=O)[C@H](Cc2c[nH]cn2)NC1=O` (stereo partly drawn) [Compound 2552] ({CH2CO}-[Dap]Y(Carboxymethyl)DWV[Bip][Thr(3ξ)][Orn][dL]H[Cha]V[Thr(3ξ)]CN-NH2; thioether N-14), 28.6 nM. As for `CCCC[C@H]1C(=O)N[C@@H](Cc2ccc(OCC(=O)O)cc2)C(=O)N[C@@H](CC(=O)O)C(=O)N[C@@H](Cc2cccc(C)c2)C(=O)N[C@@H](C(C)C)C(=O)N[C@@H](Cc2ccc(-c3ccccc3)cc2)C(=O)N[C@@H](C(C)O)C(=O)N[C@@H](CCCN)C(=O)N[C@H](CC(C)C)C(=O)N[C@@H](CCN)C(=O)N[C@@H](CC2CCCCC2)C(=O)N[C@@H](C(C)C)C(=O)N[C@@H](C(C)O)C(=O)N[C@H](C(=O)N[C@@H](CC(N)=O)C(N)=O)CSCC(=O)N1C` (stereo partly drawn) [Compound 2553] ({CH2CO}-[NMeNle]Y(Carboxymethyl)D[Phe(3-Me)]V[Bip][Thr(3ξ)][Orn][dL][Dab][Cha]V[Thr(3ξ)]CN-NH2; thioether N-14), the IC50 worked out at 24.6 nM.
